Values quoted from earlier work as cited in US20040258741A1, “Percutaneous absorption preparations” (priority 2001, published 2004).
Structures can show the parent of a compound that is named as a salt.

What was measured:
AChE [1] = biological target: T1, AChE (Homo sapiens, UniProt P22303)
AChE [2] = biological target: T1, AChE; settings: in vitro
intracranial ACh = settings: in vivo

T1 sequence (P22303 32-614): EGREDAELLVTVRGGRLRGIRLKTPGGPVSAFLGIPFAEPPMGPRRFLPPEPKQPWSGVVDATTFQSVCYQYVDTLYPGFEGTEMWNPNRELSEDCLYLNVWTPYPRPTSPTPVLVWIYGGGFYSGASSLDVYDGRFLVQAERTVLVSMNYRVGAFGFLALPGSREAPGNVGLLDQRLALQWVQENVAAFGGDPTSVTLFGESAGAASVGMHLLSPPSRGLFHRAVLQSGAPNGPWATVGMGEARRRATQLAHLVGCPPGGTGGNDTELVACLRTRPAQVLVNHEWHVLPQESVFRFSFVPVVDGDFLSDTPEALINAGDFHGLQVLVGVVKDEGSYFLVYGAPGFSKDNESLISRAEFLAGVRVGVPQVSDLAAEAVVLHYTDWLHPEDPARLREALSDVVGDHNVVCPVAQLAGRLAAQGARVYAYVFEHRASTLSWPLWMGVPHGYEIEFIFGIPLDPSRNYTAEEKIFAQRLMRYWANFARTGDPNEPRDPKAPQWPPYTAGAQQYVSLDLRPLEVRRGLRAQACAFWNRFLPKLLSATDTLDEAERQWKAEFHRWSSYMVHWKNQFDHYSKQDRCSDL

## COc1cc2c(cc1OC)C(=O)C(F)(CC1CCN(Cc3cccc(F)c3)CC1)C2 (stereo not drawn) [ER-127528, 4-[(5,6-dimethoxy-2-fluoro-1-indanon)-2-yl]methyl-1-(3-fluorobenzyl)piperidine hydrochloride]
AChE [1]
  in vitro AChE inhibition action compared with Donepezil: stronger in vitro AChE inhibition action than Donepezil

## O=C(O)/C=C\C(=O)O.O=C1Cc2cc3c(CCC4CCN(Cc5ccccc5)CC4)noc3cc2N1 [Icopezil, 5,7-dihydro-3-[2-[1-(phenylmethyl)-4-piperidinyl]ethyl]-6H-pyrrolo-[4,5-f]-1,2-benzisoxazol-6-one maleate]
AChE [2]
  AChE selectivity compared with tacrine: higher AChE selectivity than the existing AChE inhibitor tacrine
Intracranial ACh
  intracranial ACh: clearly increases intracranial ACh in vivo
